Measurements published in PubChem BioAssay (NCI).
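Interpolation was linear, between the two tested concentrations surrounding the appropriate level; five concentrations were tested over 48 hours in 96-well plates. GI50: concentration for 50% inhibition of growth. TGI is the concentration that stops growth completely.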

Columns and labels:
Experiment in all cases: DTP human tumour cell line panel, 48 h
MDA-MB-435 = system: MDA-MB-435
TK-10 renal = system: TK-10 renal
SN12C renal = system: SN12C renal
SNB-75 CNS = system: SNB-75 CNS
NCI-H522 lung = system: NCI-H522 lung
T-47D breast = system: T-47D breast
KM12 colon = system: KM12 colon
PC-3 prostate = system: PC-3 prostate
NCI-H23 lung = system: NCI-H23 lung
RPMI-8226 leukemia = system: RPMI-8226 leukemia
SK-MEL-5 melanoma = system: SK-MEL-5 melanoma
SK-OV-3 ovarian = system: SK-OV-3 ovarian
DU-145 prostate = system: DU-145 prostate
NCI-H460 lung = system: NCI-H460 lung
HS 578T breast = system: HS 578T breast
HOP-92 NSCLC = system: HOP-92 NSCLC
OVCAR-5 ovarian = system: OVCAR-5 ovarian
HCC-2998 colon = system: HCC-2998 colon
SNB-19 CNS = system: SNB-19 CNS
SK-MEL-28 melanoma = system: SK-MEL-28 melanoma
SF-295 CNS = system: SF-295 CNS
MOLT-4 leukemia = system: MOLT-4 leukemia
SR leukemia = system: SR leukemia
CCRF-CEM leukemia = system: CCRF-CEM leukemia
HOP-62 NSCLC = system: HOP-62 NSCLC
HL-60(TB) leukemia = system: HL-60(TB) leukemia
HCT-15 colon = system: HCT-15 colon
CAKI-1 renal = system: CAKI-1 renal
UACC-62 melanoma = system: UACC-62 melanoma
RXF 393 renal = system: RXF 393 renal
UO-31 renal = system: UO-31 renal
ACHN renal = system: ACHN renal
IGROV1 ovarian = system: IGROV1 ovarian
MCF7 breast = system: MCF7 breast
SF-268 CNS = system: SF-268 CNS
SW-620 colon = system: SW-620 colon
SK-MEL-2 melanoma = system: SK-MEL-2 melanoma
HT29 colon = system: HT29 colon
EKVX NSCLC = system: EKVX NSCLC
A549 NSCLC = system: A549 NSCLC
MDA-MB-231 breast = system: MDA-MB-231 breast
A498 renal = system: A498 renal
K-562 leukemia = system: K-562 leukemia
OVCAR-8 ovarian = system: OVCAR-8 ovarian
MALME-3M melanoma = system: MALME-3M melanoma
U251 CNS = system: U251 CNS
SF-539 CNS = system: SF-539 CNS

Cc1[nH]nc2ccc(-c3nc4cnc(N5CCN(C)CC5)cn4c3Nc3ccc(F)cc3Br)cc12
GI50 (MDA-MB-435): 1.87 µM
TGI (MDA-MB-435): 3.83 µM
GI50 (TK-10 renal): 2.82 µM
TGI (TK-10 renal): 8.83 µM
GI50 (SN12C renal): 1.65 µM
TGI (SN12C renal): 3.34 µM
GI50 (SNB-75 CNS): 1.22 µM
TGI (SNB-75 CNS): 2.57 µM
GI50 (NCI-H522 lung): 2.01 µM
TGI (NCI-H522 lung): 4.72 µM
GI50 (T-47D breast): 1.95 µM
TGI (T-47D breast): 5.07 µM
GI50 (KM12 colon): 3.67 µM
TGI (KM12 colon): 16.4 µM
GI50 (PC-3 prostate): 2.47 µM
TGI (PC-3 prostate): 10.2 µM
GI50 (NCI-H23 lung): 1.83 µM
TGI (NCI-H23 lung): 3.6 µM
GI50 (RPMI-8226 leukemia): 2.16 µM
TGI (RPMI-8226 leukemia): 5.07 µM
GI50 (SK-MEL-5 melanoma): 1.74 µM
TGI (SK-MEL-5 melanoma): 3.25 µM
GI50 (SK-OV-3 ovarian): 2.08 µM
TGI (SK-OV-3 ovarian): 5.09 µM
GI50 (DU-145 prostate): 1.99 µM
TGI (DU-145 prostate): 3.93 µM
GI50 (NCI-H460 lung): 2.03 µM
TGI (NCI-H460 lung): 4.35 µM
GI50 (HS 578T breast): 2.44 µM
TGI (HS 578T breast): 6.43 µM
GI50 (HOP-92 NSCLC): 1.59 µM
TGI (HOP-92 NSCLC): 3.67 µM
GI50 (OVCAR-5 ovarian): 2.38 µM
TGI (OVCAR-5 ovarian): 7.94 µM
GI50 (HCC-2998 colon): 2.11 µM
TGI (HCC-2998 colon): 5.18 µM
GI50 (SNB-19 CNS): 2.87 µM
TGI (SNB-19 CNS): 10.4 µM
GI50 (SK-MEL-28 melanoma): 1.69 µM
TGI (SK-MEL-28 melanoma): 3.2 µM
GI50 (SF-295 CNS): 1.61 µM
TGI (SF-295 CNS): 3.29 µM
GI50 (MOLT-4 leukemia): 2.85 µM
TGI (MOLT-4 leukemia): 9.43 µM
GI50 (SR leukemia): 0.303 µM
TGI (SR leukemia): > 100 µM
GI50 (CCRF-CEM leukemia): 2.25 µM
TGI (CCRF-CEM leukemia): 7.08 µM
GI50 (HOP-62 NSCLC): 2.23 µM
TGI (HOP-62 NSCLC): 6.69 µM
GI50 (HL-60(TB) leukemia): 1.79 µM
TGI (HL-60(TB) leukemia): 4.81 µM
GI50 (HCT-15 colon): 1.73 µM
TGI (HCT-15 colon): 3.38 µM
GI50 (CAKI-1 renal): 2.23 µM
TGI (CAKI-1 renal): 6.51 µM
GI50 (UACC-62 melanoma): 1.64 µM
TGI (UACC-62 melanoma): 3.22 µM
GI50 (RXF 393 renal): 1.57 µM
TGI (RXF 393 renal): 3.2 µM
GI50 (UO-31 renal): 1.34 µM
TGI (UO-31 renal): 2.93 µM
GI50 (ACHN renal): 1.72 µM
TGI (ACHN renal): 3.39 µM
GI50 (IGROV1 ovarian): 1.69 µM
TGI (IGROV1 ovarian): 3.46 µM
GI50 (MCF7 breast): 1.48 µM
TGI (MCF7 breast): 2.9 µM
GI50 (SF-268 CNS): 1.89 µM
TGI (SF-268 CNS): 4.11 µM
GI50 (SW-620 colon): 2.9 µM
TGI (SW-620 colon): 11 µM
GI50 (SK-MEL-2 melanoma): 2.84 µM
TGI (SK-MEL-2 melanoma): 7.9 µM
GI50 (HT29 colon): 2.24 µM
TGI (HT29 colon): 5.08 µM
GI50 (EKVX NSCLC): 1.87 µM
TGI (EKVX NSCLC): 5.39 µM
GI50 (A549 NSCLC): 2.81 µM
TGI (A549 NSCLC): 20.5 µM
GI50 (MDA-MB-231 breast): 1.84 µM
TGI (MDA-MB-231 breast): 4.02 µM
GI50 (A498 renal): 1.32 µM
TGI (A498 renal): 2.78 µM
GI50 (K-562 leukemia): 1.24 µM
TGI (K-562 leukemia): 7.56 µM
GI50 (OVCAR-8 ovarian): 2.29 µM
TGI (OVCAR-8 ovarian): 6.31 µM
GI50 (MALME-3M melanoma): 1.51 µM
TGI (MALME-3M melanoma): 3.14 µM
GI50 (U251 CNS): 2.43 µM
TGI (U251 CNS): 8.04 µM
GI50 (SF-539 CNS): 1.79 µM
TGI (SF-539 CNS): 3.61 µM
